For data set [1] the following is noted: for mass density: 298.15 K, 101.33 kPa, Liquid, Vibrating tube method; for Normal melting temperature: Crystal, DTA.
A short description of data set [2]: Molar enthalpy of transition or fusion. The note with it: Crystal; DSC.

± gives the expanded uncertainty stated by the source.

Consider `CCO` [ethanol], for which the mass density in data set [1] is reported as 785.12 ± 1 kg/m3. For the compound `Cn1c(=O)c2[nH]cnc2n(C)c1=O` [3,7-dihydro-1,3-dimethyl-1H-purine-2,6-dione], the Normal melting temperature in data set [1] is 271.4 ± 0.4 °C. In data set [2], the “Molar enthalpy of transition or fusion” value was 7.23 ± 0.158 kcal/mol. Turning to `Cn1c(=O)c2c(ncn2CCO)n(C)c1=O` [7-(2-hydroxyethyl)-1,3-dimethylxanthine], the Normal melting temperature in data set [1] amounted to 162.7 ± 0.4 °C. The “Molar enthalpy of transition or fusion” value in data set [2] was 7.8 ± 0.17 kcal/mol. As for `CCCCCCCCO` [octan-1-ol], in data set [1], the mass density is given as 822.99 ± 1 kg/m3.

For the origin of these results see the NIST ThermoML archive (doi:10.1016/j.jct.2014.05.005).
